Assay results from patent publication US10987293B2, “Composition for skin external application” (DR. RAYMOND LABORATORIES, INC., priority 2018, dated 2021).

Test system: fertilized eggs of the zebrafish
Experiment: Developmental toxicity in zebrafish
Format: in vivo
Conditions: 1, 10, 100 μg/mL; 4 hours exposure; judged 24 and 48 hours after fertilization
Method: 4. Confirmation of Presence of Developmental Toxicity in Zebrafish
In this case, a 1% DMSO aqueous solution that was a stock solution was used as the control material.
Specifically, each of the samples was prepared at concentrations of 1, 10, and 100 μg/mL using the stock solution. After each of the samples was adjusted to these concentrations, fertilized eggs of the zebrafish were exposed to each of the samples for 4 hours. 24 hours after fertilization (20 hours after the exposure to each of the samples) and 48 hours after fertilization (44 hours after the exposure to each of the samples), it was judged whether or not the samples were toxic overall. In this case, the toxicity was evaluated based on the indicators divided into eight categories (Normal Development; Death; Coagulated Egg; Necrotic Tissue; Eye Development Alteration; Edema (Pericardial Edema); Tail Formation; and General Retardation).
That is, it was confirmed that the serinol-based compound according to the present invention had no developmental toxicity.

For `CCCCCCCCCCCCCCCC(=O)NC(CO)CO` [palmitoyl serinol], the “developmental toxicity (development of fertilized eggs)” value was “developed normally”.
